The record followed here is US20110230478A1 (Bayer ScienceCrop AG, priority 2008, published 2011).

Molecules are shown by their SMILES. Structures can show the parent of a compound that is named as a salt.

The first series in a line: logP by HPLC on reversed-phase columns (C 18), EEC Directive 79/831 Annex V.A8. The format is physicochemical. The following applies: method marker [a]; footnote not given.
Regarding `COCCNc1nc(Nc2cc(OC)cc(OC)c2)ncc1Cl.Cl` [Example 62], the logP is 1.67[a];.

`CN(C)c1nc(Nc2ccccc2)ncc1Cl` [Example 33]: the logP was 1.78[a];.

On to `CCN(CC)c1ccc(Nc2ncc(Cl)c(NC(C)COC)n2)cc1` (stereo not drawn) [Example 13], for which the logP was 1.16[a].

Consider `CCC(C)Nc1nc(Nc2ccccc2)ncc1Cl.Cl` (stereo not drawn) [Example 65], for which the logP is 2.04[a].

On to `COCCNc1nc(Nc2cc(OC)cc(OC)c2)ncc1Cl` [Example 4], for which the logP was 1.67[a].

`CCCCNc1nc(Nc2ccccc2)ncc1Cl` [Example 32]: the logP was 2.12[a].

Consider `CC(C)c1ccc(Nc2ncc(Cl)c(NCCO)n2)cc1.Cl` [Example 58], for which the logP was 1.6[a].

For the compound `COCC(C)Nc1nc(Nc2ccc(S(=O)(=O)N3CCOCC3)cc2)ncc1Cl` (stereo not drawn) [Example 63], the logP was 2.18[a].

With `CCC(C)N(C)c1nc(Nc2cccc(S(=O)(=O)N(C)C)c2)ncc1Cl` (stereo not drawn) [Example 52], the logP is 3.33[a].

`COCCNc1nc(Nc2cccc(Cl)c2)ncc1Cl` [Example 2]: the logP was 2.13[a];.

Turning to `CC(C)N(C)c1nc(Nc2ccccc2)ncc1Cl.Cl` [Example 46], the logP is 2.45[a].

The same series, now with this note: method marker [b] (compound 257: pH2.7).
As to `CCC(=O)N(C)c1cccc(Nc2ncc(Cl)c(NC(C)C)n2)c1` [Example 290], the logP was 1.76[b].

Regarding `C=CCCNc1nc(Nc2ccccc2)ncc1Cl` [Example 294], the logP was 1.87[b].

Take `COc1cc(Nc2ncc(Cl)c(NC3CCCCC3)n2)cc(OC)c1OC` [Example 261]: the logP is 2.26[b].

Turning to `CC(C)CN(C)c1nc(Nc2ccccc2)ncc1Cl` [Example 270], the logP is 3[b].

With `CCC(CC)Nc1nc(Nc2ccccc2)ncc1Cl` [Example 275], the logP was 2.34[b].

With `CSc1cccc(Nc2ncc(Cl)c(NC3CCCC3)n2)c1` [Example 256], the logP is 2.93[b].

As to `CC(C)Nc1nc(Nc2cccc(C(F)F)c2)ncc1Cl` [Example 281], the logP was 2.4[b].

`CCCC(C)Nc1nc(Nc2ccccc2)ncc1Cl` (stereo not drawn) [Example 274]: the logP was 2.41[b].

Consider `CC(C)Nc1nc(Nc2cccc(CS(=O)(=O)NC(C)c3ccccc3)c2)ncc1Cl` (stereo not drawn) [Example 248], for which the logP was 2.32[b].

As for `CCCCN(C)c1nc(Nc2cccc(SC)c2)ncc1Cl` [Example 282], the logP was 3.9[b].

For the compound `Clc1cnc(Nc2ccccc2)nc1NC1CCCCC1` [Example 259], the logP is 2.53[b].

Staying with this series, now noted: method marker [b]; footnote not given; compound 68 value matches logP (pH 2.3).
With `COCC(C)Nc1nc(Nc2ccc(OC(F)(F)F)c(Cl)c2)ncc1Cl` (stereo not drawn) [Example 98], the logP is 3.99[b].

On to `COCC(C)Nc1nc(Nc2ccc3c(c2)OCO3)ncc1Cl` (stereo not drawn) [Example 97], for which the logP was 1.56[b].

Consider `COCCNc1nc(Nc2cc(OC)cc(OC)c2)ncc1Cl.Cl` [Example 62], for which the logP was 1.67[b].

`COCC(C)Nc1nc(Nc2cccc(C#N)c2)ncc1Cl` (stereo not drawn) [Example 83]: the logP was 2.11[b].

`COCC(C)Nc1nc(Nc2ccc3c(c2)OC(F)(F)C(F)(F)O3)ncc1Br` (stereo not drawn) [Example 75]: the logP is 4.08[b].

`CN(C)c1nc(Nc2ccccc2)ncc1Cl` [Example 33]: the logP was 1.73[b].

For the compound `CCOc1cccc(Nc2ncc(Cl)c(NC(C)COC)n2)c1` (stereo not drawn) [Example 96], the logP is 2.04[b].

As for `COCC(C)Nc1nc(Nc2cc(Cl)cc(Cl)c2)ncc1Br` (stereo not drawn) [Example 114], the logP was 4.32[b].

For `COCC(C)Nc1nc(Nc2ccc(F)cc2)ncc1Cl` (stereo not drawn) [Example 69], the logP is 1.8[b].

For `COCC(C)Nc1nc(Nc2ccc(Cl)c(S(C)(=O)=O)c2)ncc1Br` (stereo not drawn) [Example 76], the logP was 2.23[b].

With `COCC(C)Nc1nc(Nc2ccc(OC(F)(F)F)c(Cl)c2)ncc1Br` (stereo not drawn) [Example 118], the logP was 4.23[b].

As for `COCC(C)Nc1nc(Nc2ccc3c(c2)CCN3C(C)=O)ncc1Cl` (stereo not drawn) [Example 107], the logP was 1.48[b].

Consider `CN(C)c1nc(Nc2ccccc2)ncc1C#N` [Example 44], for which the logP is 2.36[b].

For `COCC(C)Nc1nc(Nc2ccc(-c3cscn3)cc2)ncc1Cl` (stereo not drawn) [Example 90], the logP was 1.87[b].

Consider `COCCNc1nc(Nc2cccc(Cl)c2)ncc1Cl` [Example 2], for which the logP was 2.13[b].

Regarding `COCC(C)Nc1nc(Nc2cc(OC)c(OC)c(OC)c2)ncc1C(F)(F)F` (stereo not drawn) [Example 24], the logP was 2.46[b].

As to `COCC(C)Nc1nc(Nc2ccc3oc(=O)sc3c2)ncc1Cl` (stereo not drawn) [Example 106], the logP is 2.11[b].

Take `COCC(C)Nc1nc(Nc2cccc(S(=O)(=O)N(C)C)c2)ncc1Br` (stereo not drawn) [Example 72]: the logP was 2.37[b].

As for `COCC(C)Nc1nc(Nc2ccc(C(=O)OC)c(Cl)c2)ncc1Cl` (stereo not drawn) [Example 95], the logP was 2.95[b].

With `COCC(C)Nc1nc(Nc2cccc(OC)c2)ncc1Cl` (stereo not drawn) [Example 85], the logP is 1.78[b].

Regarding `COCC(C)Nc1nc(Nc2ccc(CC(=O)OC)cc2)ncc1Cl` (stereo not drawn) [Example 91], the logP is 1.71[b].

`COCC(C)Nc1nc(Nc2cccc(NC(C)=O)c2)ncc1Br` (stereo not drawn) [Example 80]: the logP was 1.11[b].

The same series, now with this note: method marker [c].
In the case of `CCC(=O)N(C)c1cccc(Nc2ncc(Cl)c(NC(C)C)n2)c1` [Example 290], the logP is 2.89[c];.

As for `CC(C)Nc1nc(Nc2cccc(CS(=O)(=O)NC(C)c3ccccc3)c2)ncc1Cl` (stereo not drawn) [Example 248], the logP is 3.57[c];.

The same series, now with this note: pH 2.3, 0.1% aqueous phosphoric acid and acetonitrile; read-out: logP [a].
Turning to `CCC(CC)Nc1nc(Cl)ncc1Cl` [Example V-23], the chromatographic logP worked out at 3.39.

The series is the same for the next values; noted with them: pH 2.3, logP [a].
The compound `CCNc1nc(Cl)ncc1Cl` [Example V-20, 2,5-dichloro-N-ethylpyrimidine-4-amine] returned a chromatographic logP of 1.93.

Regarding `C=CCNc1nc(Cl)ncc1Cl` [Example V-13, 2,5-dichloro-N-(prop-2-en-1-yl)pyrimidine-4-amine], the chromatographic logP stood at 2.12.

Still in this series, the particulars now being: reversed-phase HPLC column (C 18), method marker [c]; footnote not given; read-out: logP.
Regarding `COCC(C)Nc1nc(Nc2ccc(C(=O)OC)cc2)ncc1Cl` (stereo not drawn) [Example 38, Methyl 4-({5-chloro-4-[(1-methoxypropan-2-yl)amino]pyrimidin-2-yl}amino)benzene-carboxylate hydrochloride], the chromatographic logP stood at 3.05.

The series is the same for the next values; noted with them: reversed-phase HPLC column (C 18), pH 2.3, method marker [a]; footnote not given; read-out: logP.
Take `COCC(C)Nc1nc(Nc2ccc(C(=O)OC)cc2)ncc1Cl` (stereo not drawn) [Example 38, Methyl 4-({5-chloro-4-[(1-methoxypropan-2-yl)amino]pyrimidin-2-yl}amino)benzene-carboxylate hydrochloride]: the chromatographic logP came out at 2.31.

Still in this series, the particulars now being: reversed-phase HPLC column (C 18), pH 2.3, method marker [b]; footnote not given; compound 68 value matches logP (pH 2.3); read-out: logP.
`CCCNc1nc(Nc2ccccc2)ncc1C#N` [Example 68, 2-(Phenylamino)-4-(propylamino)pyrimidine-5-carbonitrile]: the chromatographic logP amounted to 2.68.

The series is the same for the next values; noted with them: reversed-phase HPLC column (C 18), pH 2.3, pH 2.3, 0.1% aqueous phosphoric acid and acetonitrile; read-out: logP [a].
For the compound `CC(C)CN(C)c1nc(Cl)ncc1Cl` [Example V-26, 2,5-dichloro-N-methyl-N-(2-methylpropyl)pyrimidine-4-amine], the chromatographic logP came out at 3.78.

As for `CCCC(C)Nc1nc(Cl)ncc1Cl` (stereo not drawn) [Example V-27, 2,5-dichloro-N-(pent-2-yl)pyrimidine-4-amine], the chromatographic logP was 3.47.

In the case of `COCC(C)Nc1nc(Nc2ccc(C(=O)OC)cc2)ncc1Cl` (stereo not drawn) [Example 38, Methyl 4-({5-chloro-4-[(1-methoxypropan-2-yl)amino]pyrimidin-2-yl}amino)benzene-carboxylate hydrochloride], the chromatographic logP came to 2.31.

`CCCNc1nc(Nc2ccccc2)ncc1C#N` [Example 68, 2-(Phenylamino)-4-(propylamino)pyrimidine-5-carbonitrile]: the chromatographic logP worked out at 2.68.

Regarding `Nc1cccc(CS(=O)(=O)NCc2ccccc2)c1` [IV-8, 1-(3-aminophenyl)-N-benzylmethanesulphonamide], the chromatographic logP is 1.32.

As for `CC(NS(=O)(=O)Cc1cccc([N+](=O)[O-])c1)c1ccccc1` (stereo not drawn) [IV-3, N-(1-phenylethyl)-1-(3-nitrophenyl)methanesulphonamide], the chromatographic logP stood at 2.63.

In the case of `CCCN(C)c1nc(Cl)ncc1Cl` [Example V-25, 2,5-dichloro-N-methyl-N-propylpyrimidine-4-amine], the chromatographic logP was found to be 3.31.

Staying with this series, now noted: values marked [a]; pH 2.3.
On to `COCC(C(C)C)N(C)c1nc(Nc2ccccc2)ncc1Br` (stereo not drawn) [Example 231], for which the logP was 2.47[a].

`CCC(COC)N(C)c1nc(Nc2ccccc2)ncc1Br` (stereo not drawn) [Example 232]: the logP is 2.23[a].

As for `CSc1cccc(Nc2ncc(Cl)c(NCC#N)n2)c1` [Example 221], the logP is 2.27[a].

With `CSCC(C)(C)Nc1nc(Nc2cccc(SC)c2)ncc1Cl` [Example 175], the logP was 3.48[a];.

The same series, now with this note: values marked [b]; footnote not given.
As for `COCC(C)Nc1nc(Nc2cccc(NC=O)c2)ncc1Br` (racemic) [Example 132], the logP is 1.43[b].

For `COCC(C)Nc1nc(Nc2ccc(NC(C)=O)c(OC)c2)ncc1Cl` (racemic) [Example 140], the logP is 1.38[b].

`COCC(C)Nc1nc(Nc2ccc(C(=O)CC#N)cc2)ncc1Br` (stereo not drawn) [Example 121]: the logP is 2.23[b].

Take `CCNc1nc(Nc2cccc(SC)c2)ncc1Cl` [Example 238]: the logP is 1.92[b].

With `COCC(C)Nc1nc(Nc2ccc(NC(C)=O)c(OC)c2)ncc1Br` (racemic) [Example 125], the logP was 1.46[b].

Regarding `CC(C)Nc1nc(Nc2cccc(OC(F)(F)F)c2)ncc1Cl` [Example 185], the logP is 3.26[b].

As to `CC(C)Nc1nc(Nc2cccc(C#N)c2)ncc1Cl` [Example 180], the logP was 2.21[b].

Take `CC(C)Nc1nc(Nc2ccc(NC(=O)C(C)C)cc2)ncc1Cl` [Example 209]: the logP was 1.61[b].

Consider `CNc1nc(Nc2cccc(CC#N)c2)ncc1Cl` [Example 235], for which the logP was 1.1[b].

Consider `CCOC(=O)Nc1ccc(Nc2ncc(Cl)c(NC(C)C)n2)cc1` [Example 202], for which the logP was 1.66[b].

Take `FC(F)(F)OCCNc1nc(Nc2ccccc2)ncc1Cl` [Example 177]: the logP was 2.26[b].

As to `COCC(C)Nc1nc(Nc2ccc(NC(=O)C(C)C)cc2)ncc1Cl` (stereo not drawn) [Example 169], the logP was 1.59[b].

For `COCC(C)Nc1nc(Nc2ccc(C(=O)N(C)C)cc2)ncc1Cl` (stereo not drawn) [Example 148], the logP is 1.51[b].

For the compound `CC(=O)Nc1ccc(Nc2ncc(Cl)c(NC(C)C)n2)cc1` [Example 189], the logP is 1.32[b].

Regarding `COCC(C)Nc1nc(Nc2cccc(NC(=O)C(C)(C)CF)c2)ncc1Cl` (stereo not drawn) [Example 166], the logP was 1.83[b].

As to `COCC(C)Nc1nc(Nc2cccc(NC(=O)c3ccco3)c2)ncc1Cl` (stereo not drawn) [Example 168], the logP is 1.68[b].

Still in this series, the particulars now being: values marked [c]; footnote not given.
`CCNc1nc(Nc2cccc(SC)c2)ncc1Cl` [Example 238]: the logP is 3.46[c];.

With `CSCC(C)(C)Nc1nc(Nc2cccc(SC)c2)ncc1Cl` [Example 175], the logP is 4.59[c].
